From ChEMBL document CHEMBL1201861, “Genomics of Drug Sensitity in Cancer screening data, Wellcome Trust Sanger Institute”

Key:
[1] = system: NCI-H2196; assay: cells; type: functional, cell-based; conditions: Homo sapiens;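 further: cell viability assay used as the readout of growth inhibition in NCI-H2196 cells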
Description: SANGER: Inhibition of human NCI-H2196 cell growth in a cell viability assay.

[2] = system: NB14; assay: cells; type: functional, cell-based; conditions: Homo sapiens;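 further: growth inhibition of NB14 cells measured with a cell viability assay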
Description: SANGER: Inhibition of human NB14 cell growth in a cell viability assay.

[3] = system: NCI-H2081; assay: cells; type: functional, cell-based; conditions: Homo sapiens;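 further: growth inhibition of human NCI-H2081 cells, read out with a cell viability assay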
Description: SANGER: Inhibition of human NCI-H2081 cell growth in a cell viability assay.

[4] = system: NCI-H748; assay: cells; type: functional, cell-based; conditions: Homo sapiens;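 further: growth inhibition of NCI-H748 cells, measured by a cell viability assay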
Description: SANGER: Inhibition of human NCI-H748 cell growth in a cell viability assay.

[5] = system: REH; assay: cells; type: functional, cell-based; conditions: Homo sapiens;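 further: growth inhibition of REH cells determined with a cell viability read-out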
Description: SANGER: Inhibition of human REH cell growth in a cell viability assay.

[6] = system: DG-75; assay: cells; type: functional, cell-based; conditions: Homo sapiens;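 further: growth inhibition of DG-75 cells, read out with a cell viability assay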
Description: SANGER: Inhibition of human DG-75 cell growth in a cell viability assay.

[7] = system: CHP-126; assay: cells; type: functional, cell-based; conditions: Homo sapiens
Description: SANGER: Inhibition of human CHP-126 cell growth in a cell viability assay.

[8] = system: U-698-M; assay: cells; type: functional, cell-based; conditions: Homo sapiens
Description: SANGER: Inhibition of human U-698-M cell growth in a cell viability assay.

[9] = system: LB647-SCLC; assay: cells; type: functional, cell-based; conditions: Homo sapiens;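 further: cell growth inhibition, read out by a viability assay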
Description: SANGER: Inhibition of human LB647-SCLC cell growth in a cell viability assay.

[10] = system: SIG-M5; assay: cells; type: functional, cell-based; conditions: Homo sapiens;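 further: cell viability assay read-out, measuring how strongly growth of cultured human SIG-M5 cells is inhibited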
Description: SANGER: Inhibition of human SIG-M5 cell growth in a cell viability assay.

[11] = system: SK-MM-2; assay: cells; type: functional, cell-based; conditions: Homo sapiens;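 further: growth inhibition of human SK-MM-2 cells, read out with a cell viability assay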
Description: SANGER: Inhibition of human SK-MM-2 cell growth in a cell viability assay.

[12] = system: EHEB; assay: cells; type: functional, cell-based; conditions: Homo sapiens;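 further: growth inhibition of human EHEB cells, read out with a cell viability assay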
Description: SANGER: Inhibition of human EHEB cell growth in a cell viability assay.

[13] = system: LB996-RCC; assay: cells; type: functional, cell-based; conditions: Homo sapiens
Description: SANGER: Inhibition of human LB996-RCC cell growth in a cell viability assay.

[14] = system: TE-441-T; assay: cells; type: functional, cell-based; conditions: Homo sapiens
Description: SANGER: Inhibition of human TE-441-T cell growth in a cell viability assay.

[15] = system: NCI-H2171; assay: cells; type: functional, cell-based; conditions: Homo sapiens;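 further: growth inhibition of human NCI-H2171 cells, read out by a cell viability assay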
Description: SANGER: Inhibition of human NCI-H2171 cell growth in a cell viability assay.

[16] = system: WSU-NHL; assay: cells; type: functional, cell-based; conditions: Homo sapiens;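 further: growth inhibition of human WSU-NHL cells, read out with a cell viability assay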
Description: SANGER: Inhibition of human WSU-NHL cell growth in a cell viability assay.

[17] = system: LU-165; assay: cells; type: functional, cell-based; conditions: Homo sapiens
Description: SANGER: Inhibition of human LU-165 cell growth in a cell viability assay.

[18] = system: A253 cell line; assay: cells; type: functional, cell-based; conditions: Homo sapiens;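 further: growth inhibition of A253 cells, read out with a cell viability assay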
Description: SANGER: Inhibition of human A253 cell growth in a cell viability assay.

[19] = system: DMS-153; assay: cells; type: functional, cell-based; conditions: Homo sapiens
Description: SANGER: Inhibition of human DMS-153 cell growth in a cell viability assay.

[20] = system: RPMI 8402; assay: SANGER: Inhibition of human RPMI-8402 cell growth in a cell viability assay.; type: functional, cell-based
[21] = system: KMS-12-PE; assay: cells; type: functional, cell-based; conditions: Homo sapiens;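 further: growth inhibition of human KMS-12-PE cells, measured with a cell viability assay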
Description: SANGER: Inhibition of human KMS-12-PE cell growth in a cell viability assay.

[22] = system: HCC 2998; assay: cells; type: functional, cell-based; conditions: Homo sapiens;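 further: growth inhibition of human HCC2998 cells, measured with a cell viability read-out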
Description: SANGER: Inhibition of human HCC2998 cell growth in a cell viability assay.

[23] = system: DU-145; assay: cells; type: functional, cell-based; conditions: Homo sapiens
Description: SANGER: Inhibition of human DU-145 cell growth in a cell viability assay.

[24] = system: YAPC; assay: cells; type: functional, cell-based; conditions: Homo sapiens;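 further: growth inhibition of YAPC cells, measured with a cell viability assay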
Description: SANGER: Inhibition of human YAPC cell growth in a cell viability assay.

[25] = system: Ca9-22; assay: cells; type: functional, cell-based; conditions: Homo sapiens;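 further: growth inhibition of Ca9-22 cells, read out with a cell viability assay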
Description: SANGER: Inhibition of human Ca9-22 cell growth in a cell viability assay.

[26] = system: GP5d; assay: cells; type: functional, cell-based; conditions: Homo sapiens;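 further: growth inhibition of human GP5d cells, read out with a cell viability assay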
Description: SANGER: Inhibition of human GP5d cell growth in a cell viability assay.

[27] = system: MCF7; assay: cells; type: functional, cell-based; conditions: Homo sapiens;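 further: growth inhibition of human MCF7 cells, read out with a cell viability assay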
Description: SANGER: Inhibition of human MCF7 cell growth in a cell viability assay.

[28] = system: NCI-H1703; assay: cells; type: functional, cell-based; conditions: Homo sapiens;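 further: growth inhibition of NCI-H1703 cells, read out via a cell viability assay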
Description: SANGER: Inhibition of human NCI-H1703 cell growth in a cell viability assay.

[29] = system: HT-1080; assay: cells; type: functional, cell-based; conditions: Homo sapiens
Description: SANGER: Inhibition of human HT-1080 cell growth in a cell viability assay.

[30] = system: CHP-212; assay: cells; type: functional, cell-based; conditions: Homo sapiens
Description: SANGER: Inhibition of human CHP-212 cell growth in a cell viability assay.

[31] = system: HCC1395; assay: cells; type: functional, cell-based; conditions: Homo sapiens;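 further: growth inhibition of HCC1395 cells, read out by a cell viability assay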
Description: SANGER: Inhibition of human HCC1395 cell growth in a cell viability assay.

[32] = system: SNU-423; assay: cells; type: functional, cell-based; conditions: Homo sapiens
Description: SANGER: Inhibition of human SNU-423 cell growth in a cell viability assay.

[33] = system: EFO-21; assay: cells; type: functional, cell-based; conditions: Homo sapiens;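 further: growth inhibition of EFO-21 cells measured with a viability assay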
Description: SANGER: Inhibition of human EFO-21 cell growth in a cell viability assay.

[34] = system: CP50-MEL-B; assay: cells; type: functional, cell-based; conditions: Homo sapiens;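 further: growth inhibition of the human cell line, measured with a cell viability read-out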
Description: SANGER: Inhibition of human CP50-MEL-B cell growth in a cell viability assay.

[35] = system: NCI-H1792; assay: cells; type: functional, cell-based; conditions: Homo sapiens;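 further: growth inhibition of human NCI-H1792 cells, read out as cell viability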
Description: SANGER: Inhibition of human NCI-H1792 cell growth in a cell viability assay.

[36] = system: HCT-15; assay: cells; type: functional, cell-based; conditions: Homo sapiens;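 further: cell viability readout, IC50 reflecting suppression of HCT-15 cell growth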
Description: SANGER: Inhibition of human HCT-15 cell growth in a cell viability assay.

[37] = system: COLO-680N; assay: cells; type: functional, cell-based; conditions: Homo sapiens;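 further: cell viability assay used to measure inhibition of COLO-680N cell growth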
Description: SANGER: Inhibition of human COLO-680N cell growth in a cell viability assay.

[38] = system: NCI-H727; assay: cells; type: functional, cell-based; conditions: Homo sapiens;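 further: growth inhibition of human NCI-H727 cells, read out with a cell viability assay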
Description: SANGER: Inhibition of human NCI-H727 cell growth in a cell viability assay.

[39] = system: ME-180; assay: cells; type: functional, cell-based; conditions: Homo sapiens;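 further: cell viability assay measuring growth inhibition of ME-180 cells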
Description: SANGER: Inhibition of human ME-180 cell growth in a cell viability assay.

[40] = system: PANC-08-13; assay: cells; type: functional, cell-based; conditions: Homo sapiens
Description: SANGER: Inhibition of human PANC-08-13 cell growth in a cell viability assay.

[41] = system: EFM-19; assay: cells; type: functional, cell-based; conditions: Homo sapiens;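 further: growth inhibition of human EFM-19 cells, measured in a cell viability assay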
Description: SANGER: Inhibition of human EFM-19 cell growth in a cell viability assay.

[42] = system: CAL-120; assay: cells; type: functional, cell-based; conditions: Homo sapiens;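 further: cell growth inhibition, read out as cell viability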
Description: SANGER: Inhibition of human CAL-120 cell growth in a cell viability assay.

[43] = system: Detroit 562; assay: cells; type: functional, cell-based; conditions: Homo sapiens;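 further: growth inhibition of human Detroit 562 cells, read out by a cell viability assay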
Description: SANGER: Inhibition of human Detroit562 cell growth in a cell viability assay.

[44] = system: U-251; assay: cells; type: functional, cell-based; conditions: Homo sapiens;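 further: growth inhibition of human U-251 cells, read out through a cell viability assay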
Description: SANGER: Inhibition of human U251 cell growth in a cell viability assay.

[45] = system: HuCCT-1; assay: cells; type: functional, cell-based, HuCCT1; conditions: Homo sapiens;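 further: growth inhibition of HuCCT-1 cells, read out by a cell viability assay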
Description: SANGER: Inhibition of human HuCCT1 cell growth in a cell viability assay.

[46] = system: OVCAR-3; assay: cells; type: functional, cell-based; conditions: Homo sapiens;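 further: growth inhibition of human OVCAR-3 cells, determined by a cell viability assay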
Description: SANGER: Inhibition of human OVCAR-3 cell growth in a cell viability assay.

[47] = system: HPAF-II; assay: cells; type: functional, cell-based; conditions: Homo sapiens;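 further: growth inhibition of HPAF-II cells, read out with a cell viability assay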
Description: SANGER: Inhibition of human HPAF-II cell growth in a cell viability assay.

[48] = system: HEC-1; assay: cells; type: functional, cell-based; conditions: Homo sapiens;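 further: growth inhibition of the cell line, read out with a cell viability assay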
Description: SANGER: Inhibition of human HEC-1 cell growth in a cell viability assay.

[49] = system: LU-99A; assay: cells; type: functional, cell-based; conditions: Homo sapiens;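 further: growth inhibition of LU-99A cells, read out with a cell viability assay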
Description: SANGER: Inhibition of human LU-99A cell growth in a cell viability assay.

[50] = system: BPH-1; assay: cells; type: functional, cell-based; conditions: Homo sapiens;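 further: cell viability assay measuring growth inhibition of human BPH-1 cells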
Description: SANGER: Inhibition of human BPH-1 cell growth in a cell viability assay.

[51] = system: NCI-H2342; assay: cells; type: functional, cell-based; conditions: Homo sapiens;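 further: growth inhibition of the cancer cell line, determined with a cell viability assay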
Description: SANGER: Inhibition of human NCI-H2342 cell growth in a cell viability assay.

[52] = system: 8305C; assay: cells; type: functional, cell-based; conditions: Homo sapiens
Description: SANGER: Inhibition of human 8305C cell growth in a cell viability assay.

[53] = system: RCM-1; assay: cells; type: functional, cell-based; conditions: Homo sapiens;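 further: growth inhibition of the RCM-1 line, determined with a cell viability readout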
Description: SANGER: Inhibition of human RCM-1 cell growth in a cell viability assay.

[54] = system: FTC-133; assay: cells; type: functional, cell-based; conditions: Homo sapiens
[55] = system: MEL-HO; assay: cells; type: functional, cell-based; conditions: Homo sapiens
Description: SANGER: Inhibition of human MEL-HO cell growth in a cell viability assay.

[56] = system: CAPAN-1; assay: cells; type: functional, cell-based; conditions: Homo sapiens;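 further: growth suppression of CAPAN-1 cells, read out by a cell viability assay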
Description: SANGER: Inhibition of human CAPAN-1 cell growth in a cell viability assay.

[57] = system: BT-20; assay: cells; type: functional, cell-based; conditions: Homo sapiens;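 further: cell viability assay measuring suppression of growth in human BT-20 cells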
Description: SANGER: Inhibition of human BT-20 cell growth in a cell viability assay.

[58] = system: IGROV-1; assay: cells; type: functional, cell-based; conditions: Homo sapiens;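 further: reduction of IGROV-1 cell growth, read out with a viability assay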
Description: SANGER: Inhibition of human IGROV-1 cell growth in a cell viability assay.

[59] = system: SBC-5; assay: cells; type: functional, cell-based; conditions: Homo sapiens;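 further: cell viability assay read-out, IC50 is the concentration that inhibits growth of the cells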
Description: SANGER: Inhibition of human SBC-5 cell growth in a cell viability assay.

[60] = system: CHL-1; assay: cells; type: functional, cell-based; conditions: Homo sapiens;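 further: cell growth inhibition, read out with a cell viability assay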
Description: SANGER: Inhibition of human CHL-1 cell growth in a cell viability assay.

[61] = system: SW-620; assay: cells; type: functional, cell-based; conditions: Homo sapiens;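 further: growth inhibition of human SW-620 cells, measured by a cell viability assay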
Description: SANGER: Inhibition of human SW620 cell growth in a cell viability assay.

[62] = system: Ca-Ski; assay: cells; type: functional, cell-based; conditions: Homo sapiens;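 further: cell viability assay measuring inhibition of Ca-Ski cell growth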
Description: SANGER: Inhibition of human Ca-Ski cell growth in a cell viability assay.

[63] = system: NCI-H2122; assay: cells; type: functional, cell-based; conditions: Homo sapiens;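 further: growth inhibition of the cells, read out with a cell viability assay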
Description: SANGER: Inhibition of human NCI-H2122 cell growth in a cell viability assay.

Cc1ccc(NC(=O)c2cccc(C(C)(C)C#N)c2)cc1Nc1ccc2ncn(C)c(=O)c2c1
IC50 [1]: > 4 µM
IC50 [2]: 0.493 µM
IC50 [3]: > 4 µM
IC50 [4]: > 4 µM
IC50 [5]: > 4 µM
IC50 [6]: > 4 µM
IC50 [7]: > 4 µM
IC50 [8]: > 4 µM
IC50 [9]: > 4 µM
IC50 [10]: 0.00945 µM
IC50 [11]: > 4 µM
IC50 [12]: > 4 µM
IC50 [13]: > 4 µM
IC50 [14]: 2.81 µM
IC50 [15]: > 4 µM
IC50 [16]: > 4 µM
IC50 [17]: > 4 µM
IC50 [18]: > 4 µM
IC50 [19]: > 4 µM
IC50 [20]: > 4 µM
IC50 [21]: > 4 µM
IC50 [22]: 0.222 µM

O=c1[nH]c2ccccc2n1C1CCN(Cc2ccc(-c3nc4cc5[nH]cnc5cc4nc3-c3ccccc3)cc2)CC1
IC50 [1]: > 2.56 µM
IC50 [23]: > 2.56 µM
IC50 [3]: > 2.56 µM
IC50 [24]: > 2.56 µM
IC50 [25]: > 2.56 µM
IC50 [26]: > 2.56 µM
IC50 [27]: > 2.56 µM
IC50 [4]: > 2.56 µM
IC50 [28]: > 2.56 µM
IC50 [5]: > 2.56 µM
IC50 [6]: > 2.56 µM
IC50 [7]: > 2.56 µM
IC50 [29]: > 2.56 µM
IC50 [30]: > 2.56 µM
IC50 [31]: > 2.56 µM
IC50 [32]: > 2.56 µM
IC50 [8]: > 2.56 µM
IC50 [9]: > 2.56 µM
IC50 [10]: > 2.56 µM
IC50 [11]: > 2.56 µM
IC50 [33]: > 2.56 µM
IC50 [34]: > 2.56 µM
IC50 [12]: > 2.56 µM
IC50 [13]: > 2.56 µM
IC50 [35]: > 2.56 µM
IC50 [14]: > 2.56 µM
IC50 [15]: > 2.56 µM
IC50 [16]: > 2.56 µM
IC50 [36]: > 2.56 µM
IC50 [37]: > 2.56 µM
IC50 [38]: > 2.56 µM
IC50 [17]: > 2.56 µM
IC50 [39]: > 2.56 µM
IC50 [40]: > 2.56 µM
IC50 [18]: > 2.56 µM
IC50 [41]: 0.564 µM
IC50 [19]: > 2.56 µM
IC50 [42]: > 2.56 µM
IC50 [43]: > 2.56 µM
IC50 [44]: > 2.56 µM
IC50 [45]: > 2.56 µM
IC50 [46]: 1.84 µM
IC50 [47]: > 2.56 µM
IC50 [48]: > 2.56 µM
IC50 [49]: > 2.56 µM
IC50 [50]: > 2.56 µM
IC50 [51]: 0.938 µM
IC50 [20]: > 2.56 µM
IC50 [52]: > 2.56 µM
IC50 [53]: > 2.56 µM
IC50 [54]: > 2.56 µM
IC50 [55]: > 2.56 µM
IC50 [56]: > 2.56 µM
IC50 [57]: > 2.56 µM
IC50 [21]: > 2.56 µM
IC50 [58]: 0.723 µM
IC50 [22]: > 2.56 µM
IC50 [59]: > 2.56 µM
IC50 [60]: > 2.56 µM
IC50 [61]: > 2.56 µM
IC50 [62]: > 2.56 µM
IC50 [63]: > 2.56 µM

Cc1[nH]c(/C=C2\C(=O)Nc3ccc(S(=O)(=O)Cc4c(Cl)cccc4Cl)cc32)c(C)c1C(=O)N1CCC[C@@H]1CN1CCCC1 [PHA-665752]
IC50 [1]: > 2 µM
IC50 [2]: > 2 µM
IC50 [3]: > 2 µM
IC50 [4]: > 2 µM
IC50 [5]: > 2 µM
IC50 [6]: > 2 µM
IC50 [7]: > 2 µM
IC50 [8]: > 2 µM
IC50 [9]: > 2 µM
IC50 [10]: > 2 µM
IC50 [11]: > 2 µM
IC50 [12]: > 2 µM
IC50 [13]: > 2 µM
IC50 [14]: > 2 µM
IC50 [15]: > 2 µM
IC50 [16]: > 2 µM
IC50 [17]: > 2 µM
IC50 [18]: > 2 µM
IC50 [19]: > 2 µM
IC50 [20]: > 2 µM
IC50 [21]: > 2 µM

Cc1n[nH]c2ccc(-c3cncc(OC[C@@H](N)Cc4c[nH]c5ccccc45)c3)cc12 [A-443654]
IC50 [1]: 0.648 µM
IC50 [2]: > 1.02 µM
IC50 [3]: > 1.02 µM
IC50 [4]: 0.508 µM
IC50 [5]: > 1.02 µM
IC50 [6]: 0.546 µM
IC50 [7]: 0.267 µM
IC50 [8]: > 1.02 µM
IC50 [9]: 0.224 µM
IC50 [10]: 0.13 µM
IC50 [11]: 0.623 µM
IC50 [12]: 0.402 µM
IC50 [13]: 0.122 µM
IC50 [14]: 0.798 µM
IC50 [15]: > 1.02 µM
IC50 [16]: > 1.02 µM
IC50 [17]: 0.62 µM
IC50 [18]: 0.393 µM
IC50 [19]: 0.669 µM
IC50 [20]: 0.184 µM
IC50 [21]: > 1.02 µM
